Experimental data from US7723372B2, “Spiroindolinone derivatives” (Hoffman-La Roche Inc., priority 2008, dated 2010).

Target: interaction between p53 and MDM2 proteins (recombinant GST-tagged MDM2, biotinylated p53 peptide) (Homo sapiens, UniProt Q00987)
Assay: HTRF assay of inhibition of the p53-MDM2 interaction
Format: binding
Details: 0.02% BSA
Procedure: The ability of the compounds to inhibit the interaction between p53 and MDM2 proteins was measured by an HTRF (homogeneous time-resolved fluorescence) assay in which recombinant GST-tagged MDM2 binds to a peptide that resembles the MDM2-interacting region of p53 (Lane et al.), Binding of GST-MDM2 protein and p53-peptide (biotinylated on its N-terminal end) is registered by the FRET (fluorescence resonance energy transfer) between Europium (Eu)-labeled ant-GST antibody and streptavidin-conjugated Allophycocyanin (APC).
[…] Add 10 uL diluted compounds (1:5 dilution in reaction buffer) to each well, mix by shaking. Add 20 uL biotinylated p53 peptide (180 nM working solution) in reaction buffer to each well and mix on shaker. Incubate at 37° C. for 1 h. Add 20 uL streptavidin-APC and Eu-anti-GST antibody mixture (6 nM Eu-anti-GST and 60 nM streptavidin-APC working solution) in TBS buffer with 0.2% BSA, shake at room temperature for 30 minutes and read using a TRF-capable plate reader at 665 and 615 nm (Victor 5, Perkin ElmerWallac). If not specified, the reagents were purchased from Sigma Chemical Co.

Sequence of interaction between p53 and MDM2 proteins (recombinant GST-tagged MDM2, biotinylated p53 peptide) (Q00987 whole entry): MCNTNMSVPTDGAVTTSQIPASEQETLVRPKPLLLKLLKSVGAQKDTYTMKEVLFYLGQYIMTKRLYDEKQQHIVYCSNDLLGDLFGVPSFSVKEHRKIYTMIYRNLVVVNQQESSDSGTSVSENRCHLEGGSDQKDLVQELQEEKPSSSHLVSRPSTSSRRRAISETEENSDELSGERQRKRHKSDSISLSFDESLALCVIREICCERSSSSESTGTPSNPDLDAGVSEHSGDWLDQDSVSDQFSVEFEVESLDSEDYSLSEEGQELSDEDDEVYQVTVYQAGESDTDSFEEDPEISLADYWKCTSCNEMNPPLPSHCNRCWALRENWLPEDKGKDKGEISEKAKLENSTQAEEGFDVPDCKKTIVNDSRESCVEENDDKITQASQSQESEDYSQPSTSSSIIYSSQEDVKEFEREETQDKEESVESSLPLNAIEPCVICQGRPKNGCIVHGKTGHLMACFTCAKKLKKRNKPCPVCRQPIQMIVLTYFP

Compound `C/C=C/C1=CC(=O)C[C@@H](c2cccc(Cl)c2)[C@]12C(=O)Nc1cc(Cl)ccc12` (racemic) [Example 10 (Compound B), rac-(1S,6S)-6′-chloro-6-(3-chlorophenyl)-2-(E)-(1-propenyl)spiro[2-cyclohexene-1,3′-[3H]indole]-2′,4(1′H)-dione] has an IC50 of 5.9 µM.

For `O=C1C[C@@H](c2cccc(Cl)c2)[C@@]2(C=C1c1cc(F)ccc1O)C(=O)Nc1cc(Cl)ccc12` (racemic) [Example 17, rac-(1R,6S)-6′-chloro-6-(3-chlorophenyl)-3-(5-fluoro-2-hydroxyphenyl)spiro[2-cyclohexene-1,3′-[3H]indole]-2′,4(1′H)-dione], the IC50 was 1.66 µM.

Compound `C=Cc1ccccc1C1=CC(=O)C[C@@H](c2cccc(Cl)c2)[C@]12C(=O)Nc1cc(Cl)ccc12` (racemic) [Example 44 (Compound A), rac-(1R,6S)-6′-chloro-6-(3-chlorophenyl)-2-(2-ethylenephenyl)spiro[2-cyclohexene-1,3′-[3H]indole]-2′,4(1′H)-dione] has an IC50 of 1.39 µM.

`O=C1C[C@@H](c2cccc(Cl)c2)[C@@]2(C=C1c1ccc(F)cc1O)C(=O)Nc1cc(Cl)ccc12` (racemic) [Example 18, rac-(1R,6S)-6′-chloro-6-(3-chlorophenyl)-3-(4-fluoro-2-hydroxyphenyl)spiro[2-cyclohexene-1,3′-[3H]indole]-2′,4(1′H)-dione] showed an IC50 of 2.99 µM.

In the case of `Cc1ccc(F)cc1C1=C[C@@]2(C(=O)Nc3cc(Cl)ccc32)[C@H](c2cccc(Cl)c2)C[C@@H]1O` (racemic) [Example 5, rac-(1R, 4S, 6S)-6′-chloro-6-(3-chlorophenyl)-3-(5-fluoro-2-methylphenyl)-4-hydroxyspiro[2-cyclohexene-1,3′-[3H]indol]-2′(1′H)-one], the IC50 is reported as 1.6 µM.
